We go through 8 molecules from patent publication US20260232753A1, “COMPOSITION FOR TREATING MACULAR DEGENERATION COMPRISING NOVEL PEPTIDE” (EYEBIOKOREA, INC., priority 2021, published 2026).

In brackets after ≈: the same amount, converted by molar mass. Where a SMILES comes first, the peptide text is derived from it. Where no end group is shown, it is not given here. [ ]: non-standard residue; d: D form. Hyp = O=C(O)[C@@H]1C[C@@H](O)CN1; Phg = N[C@H](C(=O)O)c1ccccc1; Tle = CC(C)(C)[C@H](N)C(=O)O; Aib = CC(C)(N)C(=O)O

The test system of data set [1] is choroidal neovascularization (CNV). The data set can be described thus: Inhibition of choroidal neovascularization: fluorescence value (CTF) at the CNV site by FFA, laser-induced CNV model, intravitreal injection. The class given is in vivo, C57BL/6 mice. Particulars: laser-induced CNV; 1 μL intravitreal, peptide 10 mg/mL or aflibercept 20 mg/mL; ten days after administration; lower CTF = less CNV. An excerpt: (§1) The CNV animal model used in the present invention is a mouse model in which lesions are induced by irradiating a laser to the choroid of C57BL/6 mice using a laser slit system. The laser-induced CNV model, first described in 1979, uses photocoagulation to disturb Bruch's membrane to induce the growth of choroidal neovascularization into the retina area, and it is similar in development to neovascular disease in the human retina, that is, wet macular degeneration (wet AMD), in that neovascularity arises from the choroid. In addition, the laser-induced CNV model was successful in predicting the clinical efficacy of anti-vascular endothelial growth factor (VEGF) treatment for neovascular AMD, and is an animal model used in the development stage of existing therapeutic agents (Gong Y, Li J, Sun Y, Fu Z, Liu C H, Evans L, et al. (2015) Optimization of an Image-Guided Laser-Induced Choroidal Neovascularization Model in Mice. PLOS ONE 10 (7)).
(§2) In order to evaluate the efficacy of the peptide of the present invention to inhibit the choroidal neovascularization (CNV), an experiment was performed as follows.
(§3) The eyes of 7-8 week old C57BL/6 mice were instilled with a mydriatic agent to dilate the pupils, and the mice were anesthetized by intraperitoneal injection of ketamine (50 mg/kg) and rompun (23.32 mg/kg). A slit-lamp laser injection system was used to irradiate the laser to the choroid of each eye of the mouse four times in the 12 o'clock, 3 o'clock, 6 o'clock, and 9 o'clock directions. At this time, the laser irradiation conditions were 532 nm, 80 msec, and 240 mW. Immediately after laser irradiation, 1 μL of each peptide at a concentration of 10 mg/mL or aflibercept at a concentration of 20 mg/mL, which was dissolved in PBS, was injected into the vitreous body using a syringe. Ten days after drug administration, the mice were anesthetized, and 2% fluorescein was administered to the abdominal cavity to stain blood vessels. The retina was photographed 2 to 3 minutes after fluorescein administration. The size and fluorescence value of CNV lesions induced by laser were measured using the ImageJ program, and in order to reduce the differences between subjects, the CTF (corrected total fluorescence) was calculated by removing the background, and the values of each group were compared. The results of all tests are expressed as mean±standard deviation, and significance was verified using one-way ANOVA and Kruskal-wallis test.

Data set [2] can be described thus: Stability of the peptide: content analysis by HPLC in aqueous solution under harsh conditions. The class given is physicochemical. The note with it: for Decrease rate: after 7 days; for Initial content: HPLC. Here is the method:
In order to evaluate the stability of the peptide of the present invention, an experiment was performed as follows.
The stability of the peptide was confirmed through content analysis in an aqueous solution at 40° C., 75% humidity, and harsh conditions, and was analyzed using HPLC under the following conditions. • Analysis column: C18 (4.6 Y 250 mm, 5 μm, YMC Hydrosphere) • Analysis wavelength: ultraviolet absorption spectrophotometer (210 nm) • Injection volume/Flow rate: 10 μL/0.8 mL/min • Column temperature: 45° C. • Mobile phase: 0.1 M phosphate buffer methanol mixture (83:17)

The subject of data set [3] is choroidal neovascularization (CNV). The data set can be described thus: Inhibition of choroidal neovascularization: optical coherence tomography, size of CNV lesion, intravitreal injection. The class given is in vivo, C57BL/6 mice. The note with it: laser-induced CNV; 1 μL intravitreal, peptide 10 mg/mL or aflibercept 20 mg/mL; ten days after administration; OCT.
Excerpt: as §1, §2
as §3, with “and” for “and 2% fluorescein was administered to”, “the” for “the abdominal cavity to stain blood vessels. The retina was photographed 2 to 3 minutes after fluorescein administration. The size and fluorescence value of”, “calculated and expressed as μm^2” for “measured”, “program” for “program, and in order to reduce the differences between subjects, the CTF (corrected total fluorescence) was calculated”, “transmitting an OCT beam for” for “removing the background, and the values of”, “burn.” for “group were compared.”

For data set [4] the test system is unchanged. Kind of data set: Inhibition of choroidal neovascularization: electroretinography, b-wave amplitude as indicator of retinal function. The format is in vivo, C57BL/6 mice. Particulars: laser-induced CNV; 1 μL intravitreal, peptide 10 mg/mL or aflibercept 20 mg/mL; single white light 0.9 cd·sec/m^2.
Excerpt: as §1, §2
The eyes of 7-8 week old C57BL/6 mice were instilled with a mydriatic agent to dilate the pupils, and the mice were anesthetized by intraperitoneal injection of ketamine (50 mg/kg) and rompun (23.32 mg/kg). A slit-lamp laser injection system was used to irradiate the laser to the choroid of each eye of the mouse four times in the 12 o'clock, 3 o'clock, 6 o'clock, and 9 o'clock directions. At this time, the laser irradiation conditions were 532 nm, 80 msec, and 240 mW. Immediately after laser irradiation, 1 μL of each peptide at a concentration of 10 mg/mL or aflibercept at a concentration of 20 mg/mL, which was dissolved in PBS, was injected into the vitreous body using a syringe. For electroretinogram analysis, dark adaptation was performed for more than 12 hours. The mice were subjected to mydriasis in a dark room and anesthetized, and then electroretinography was performed by contacting the ground electrode to the tail, the reference electrode to the head, and the corneal electrode to the cornea. The response values were obtained by stimulating the retina with a single white light of 0.9 cd·sec/m^2 flash intensity, and the amplitude, which is determined from the trough of the a-wave to the peak of the b-wave, was measured and evaluated as an indicator of retinal function. The results of all tests are expressed as mean #standard deviation, and significance was verified using one-way ANOVA and Kruskal-wallis test.

A further data set concerns neovascularity. The data set can be described thus: Eye drop efficacy to inhibit neovascularity in Vldlr knockout mice: lesion area by retinal fluorescence imaging. The format is in vivo. The text has this:
A symptom of neovascular macular degeneration is retinal angiomatous proliferation (RAP), which occurs in approximately 12 to 15% of patients who are newly diagnosed with neovascular macular degeneration. Meanwhile, Vldlr is known to be one of the functional candidate genes for human macular degeneration, and mice in which Vldlr is knocked out (−/−) show retinal hemangioma proliferation along with subretinal neovascularization. Therefore, in order to evaluate the neovascularity inhibitory efficacy of the eye drop comprising the peptide of Example 43 (002-175), which was confirmed to be an excellent peptide through the above test examples, in Vldlr knockout (−/−) mice, an animal model of neovascular macular degeneration disease, an experiment was performed as follows.
From 6 weeks of age (P42) to 14 weeks of age (P98), Vldlr^−/− mice were instilled with the eye drop comprising the peptide of Example 43 (002-175) twice a day, and as a positive control group, aflibercept at a concentration of 20 mg/mL was intraocularly injected once, 1 μL each, into the vitreous body of 6 week old mice. The eyes of the mice were instilled with a mydriatic agent to dilate the pupils, and then the mice were anesthetized by intraperitoneal injection of ketamine (50 mg/kg) and rompun (23.32 mg/kg), and 2% fluorescein was injected to the abdominal cavity to stain blood vessels. Images were acquired through retinal fluorescence imaging, and the lesion area was calculated using the ImageJ program, and the results of the experiment are shown in FIGS. 10 and 11.

A short description of data set [5]: Solubility of the peptide in water (Korean Pharmacopoeia method). The class given is physicochemical. Particulars: 20±5° C.; for solubility: within 30 minutes. Here is the method:
In order to evaluate the solubility of the peptide of the present invention, an experiment was performed as follows.
The solubility test was conducted based on the Korean Pharmacopoeia method, and the solubility was determined as the degree to which 0.1 g of peptide was dissolved within 30 minutes when added to 10 mL of water and shaken vigorously for 30 seconds every 5 minutes at 20±5° C.

Turning to “Hyp-Gly-Gln-Glu-phenyl-Gly-Leu-Ala ([Hyp]GQE[Phg]LA) [Example 45]”, the “CTF (corrected total fluorescence) value” in data set [1] is listed as “+ (+: 300,000 to 800,000)”. Besides, the “Content after 7 days” value in data set [2] (40° C., 75% humidity, 7 days) was 98.147%. This molecule also returned a Decrease rate in data set [2] (40° C., 75% humidity) of 0.439%. Besides, the Initial content in data set [2] stood at 98.586%.

On to “Hyp-Gly-Gln-Glu-Val-Leu-Ala ([Hyp]GQEVLA) [Example 42]”, for which, in data set [1], the “CTF (corrected total fluorescence) value” is on record as “+ (+: 300,000 to 800,000)”. Further, in data set [3], the Size of lesion is reported as 6,102 μm^2. The molecule further gave a b-wave amplitude in data set [4] of 380 μV.

Regarding aflibercept [reference compound], the “CTF (corrected total fluorescence) value” in data set [1] is “+ (+: 300,000 to 800,000)”. Besides, in data set [3], the Size of lesion is recorded as 5,437 μm^2. In data set [4], the b-wave amplitude turned out to be 398 μV. For the same molecule, the “Size of the lesion (area of new blood vessels), course during administration (in words)” value in the data set on neovascularity (P42 to P98, for aflibercept from the 2nd week) is listed as “gradually increased again”. The “Size of the lesion (area of new blood vessels), 1 week after administration (in words)” value in the data set with neovascularity (P49) was “reduced rapidly”. The “Size of the lesion (area of new blood vessels), after 8 weeks (in words)” value in the data set with neovascularity (P98) is on record as “reached a size similar to that of the group administered with vehicle”.

In the case of `CC(C)C[C@H](NC(=O)C(C)(C)NC(=O)[C@H](CCC(=O)O)NC(=O)[C@H](CCC(N)=O)NC(=O)CNC(=O)[C@@H]1C[C@@H](O)CN1)C(=O)N[C@@H](C)C(=O)O` [Example 43, Hyp-Gly-Gln-Glu-Aib-Leu-Ala] (H-[Hyp]GQE[Aib]LA-OH; N-terminus and C-terminus assumed), the “Stability (in words)” value in data set [2] (40° C., 75% humidity, 7 days) is on record as “most excellent stability”. Moreover, in data set [5], the “Solubility (in words)” value was “most excellent solubility” and the solubility was at least 500 mg/mL.

In turn, `CC(C)C[C@H](NC(=O)[C@@H](NC(=O)[C@H](CCC(=O)O)NC(=O)[C@H](CCC(N)=O)NC(=O)CNC(=O)[C@@H]1C[C@@H](O)CN1)C(C)(C)C)C(=O)N[C@@H](C)C(=O)O` [Example 44, Hyp-Gly-Gln-Glu-tert-Leu-Leu-Ala] (H-[Hyp]GQE[Tle]LA-OH; N-terminus and C-terminus assumed) had a solubility in data set [5] of 100 mg/mL (≈ 135 mM).

The molecule `CC(C)C[C@H](NC(=O)CNC(=O)[C@H](CCC(=O)O)NC(=O)[C@H](CCC(N)=O)NC(=O)CNC(=O)[C@@H]1C[C@@H](O)CN1)C(=O)N[C@@H](C)C(=O)O` [Example 40, Hyp-Gly-Gln-Glu-Gly-Leu-Ala] (H-[Hyp]GQEGLA-OH; N-terminus and C-terminus assumed) registered a solubility in data set [5] of at least 330 mg/mL.

“Hyp-Gly-Gln-Glu-Leu-Leu-Ala ([Hyp]GQELLA) [Example 41]”: the “CTF (corrected total fluorescence) value” in data set [1] is reported as “+ (+: 300,000 to 800,000)”. In data set [3], the Size of lesion is recorded as 4,960 μm^2. This molecule also gave a b-wave amplitude in data set [4] of 510 μV. In addition, the “Content after 7 days” value in data set [2] (40° C., 75% humidity, 7 days) was 97.555%. Further, in data set [2] (40° C., 75% humidity), the Decrease rate is 0.600%. In data set [2], this molecule displayed an Initial content of 98.155%.

For “Hyp-Gly-Gln-Glu-Val ([Hyp]GQEV) [Example 37]”, the “CTF (corrected total fluorescence) value” in data set [1] is listed as “+ (+: 300,000 to 800,000)”. The Size of lesion in data set [3] is on record as 5,775 μm^2. Further, the b-wave amplitude in data set [4] is reported as 400 μV.

Usually solubility stands for how much of the substance goes into solution per volume.
